This series is described as follows: Partition coefficient (logP). The format is physicochemical. To be noted: octanol/water.

For orientation: logP means a log measure of how a compound divides between an organic and an aqueous phase. In the case of `CCC(C)(C)Br`, the logP (read-out: logP) came to 2.99.
Same read-out and setting: with `ClCC(Cl)(Cl)Cl` the figure was 3.05; with `CCCCCBr`, 3.25.
In the case of `CCCCCCCCBr`, the logP (read-out: logP) stood at 4.87.
Same read-out and setting: with `C=C(Cl)CCl` the figure was 1.75; with `CCCCCCCl`, 3.65.
Same read-out and setting: with `CCC(C)Br` (stereo not drawn) the figure was 2.71; with `CCC(C)CBr` (stereo not drawn), 3.12; with `ClCCCBr`, 1.88.
Same read-out and setting: with `Cl/C=C/Cl` the figure was 0.65; with `C=C(C)CCl`, 1.89.
As to `CC(C)=CBr`, the logP (read-out: logP) turned out to be 1.8.
Still for that read-out and setting: then `ClCCCCl`, with 1.74.
Same read-out and setting: with `CCCCCCCCCl` the figure was 4.85; with `CC(C)CCBr`, 3.12.
Same read-out and setting: with `ClCCBr` the figure was 1.62.
Consider `ClCC=C(Cl)Cl`, for which, where the note is “read-out: logP”, the log partition coefficient (logP) is 1.5.
Still for that read-out and setting: then `CC(C)=CCl`, with 1.89.
Still for that read-out and setting: with `ClC(Cl)(Cl)Br` the figure was 3.1.
Same read-out and setting: with `C=C(CCl)CCl` the figure was 2.01.
For `CC(Br)CCl` (stereo not drawn), the logP (read-out: logP) worked out at 2.16.
On the same count and under the same terms, with `CC(C)CCl` the figure was 2.44; with `FC(Cl)(Br)Br`, 2.8.
On to `C/C(Cl)=C/Cl`, for which the logP (read-out: logP) came out at 1.79.
The same measure, in the same setting: then `CCC(C)Cl` (stereo not drawn), with 2.57; and `CC(C)CBr`, with 2.58; and `ClCBr`, with 1.4.
On the same count and under the same terms, then `CC(Cl)C(C)Cl` (stereo not drawn), with 2.56; and `CC(C)(C)Cl`, with 2.44; and `CC(C)(C)Br`, with 2.45.
The same measure, in the same setting: then `CCCCCCl`, with 3.11; and `CC(C)(Cl)Cl`, with 2.34.
For `ClCCCCBr`, the log partition coefficient (logP) (read-out: logP) stood at 2.42.
For the compound `CC(Cl)CCCl` (stereo not drawn), where the note is “read-out: logP”, the logP was 2.28.
Same read-out and setting: then `CC(Cl)CCl` (stereo not drawn), with 2.02; and `CC(Cl)Cl`, with 1.8.
For the compound `ClC(Cl)C(Cl)Cl` [1,1,2,2-TETRACHLOROETHANE], where the note is “read-out: logP”, the log partition coefficient (logP) came out at 2.66.
For the compound `C=C(Cl)Cl` [1,1-DICHLOROETHENE], the logP (read-out: logP) is 1.21.
With `ClCC(Cl)CCl` [1,2,3-TRICHLOROPROPANE], the logP (read-out: logP) was 2.01.
Same read-out and setting: then `Cl/C=C/CCl` [1,3-DICHLOROPROPENE], with 1.19; and `CCCCBr` [1-BROMOBUTANE], with 2.71.
On the same count and under the same terms, then `ClC(Cl)Br` [BROMODICHLOROMETHANE], with 2.67; and `CCBr` [BROMOETHANE], with 1.63.
Same read-out and setting: with `BrC(Br)Br` [BROMOFORM] the figure was 2.38.
In the case of `ClC(Cl)(Cl)Cl` [CARBON TETRACHLORIDE], the logP (read-out: logP) was determined as 2.83.
The same measure, in the same setting: then `ClC(Br)Br` [DIBROMOCHLOROMETHANE], with 2.48; and `ClC(Cl)(Cl)C(Cl)(Cl)Cl` [HEXACHLOROETHANE], with 4.62; and `ClCCl` [METHYLENE CHLORIDE], with 1.26.
As for `ClC(Cl)C(Cl)(Cl)Cl` [PENTACHLOROETHANE], the logP came out at 5.72.
With `ClC(Cl)=C(Cl)Cl` [TETRACHLOROETHYLENE], the log partition coefficient (logP) was determined as 1.27.
Regarding `CC(Cl)(Cl)Cl` [TRICHLOROETHANE], under “read-out: logP”, the log partition coefficient (logP) came out at 2.5.
The compound `ClC=C(Cl)Cl` [TRICHLOROETHYLENE] showed a logP of 0.96.
For `FC(Cl)(Cl)Cl` [TRICHLOROMONOFLUOROMETHANE], the log partition coefficient (logP) (read-out: logP) came to 2.29.
